In US20080009418A1, “Selective Inhibitors” (Alchemia LTD., priority 2004, published 2008):

Legend:
[1] = biological target: T1, Human Melanocortin (MC3) (Homo sapiens, UniProt P41968); assay: Radioligand binding, human melanocortin MC3 membranes, FlashPlate, [125I]-NDP-αMSH; conditions: compound at 10 μM; human melanocortin MC3 membranes
T1 construct: purchased Perkin Elmer Biosignal
Summary of the method: (§1)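 Cloned human receptor membranes were coated onto FlashPlate wells and incubated with radioligand and compound (added from a 0.5 mM DMSO daughter plate) for 1 hour at room temperature in the dark. Scintillation counting gave percent inhibition, with DMSO defining total and reference ligand defining non-specific binding.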

[2] = biological target: T2, Human κ-Opioid (KOP) (Homo sapiens, UniProt P41145); assay: Radioligand binding, human κ-opioid (KOP) membranes, filtration, [3H]-Diprenorphine; conditions: compound at 10 μM; human κ-opioid (KOP) membranes
T2 construct: purchased Perkin Elmer Biosignal
T2 sequence (P41145 whole entry): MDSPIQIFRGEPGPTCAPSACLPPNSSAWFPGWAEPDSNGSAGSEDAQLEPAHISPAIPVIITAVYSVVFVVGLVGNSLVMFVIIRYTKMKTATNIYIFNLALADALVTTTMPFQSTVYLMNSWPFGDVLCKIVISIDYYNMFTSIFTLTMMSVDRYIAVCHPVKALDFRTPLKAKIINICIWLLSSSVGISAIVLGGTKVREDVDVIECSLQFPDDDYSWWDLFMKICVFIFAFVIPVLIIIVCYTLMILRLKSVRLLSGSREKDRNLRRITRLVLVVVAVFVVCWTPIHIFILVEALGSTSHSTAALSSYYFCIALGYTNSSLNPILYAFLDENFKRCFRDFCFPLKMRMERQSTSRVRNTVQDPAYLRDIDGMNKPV
Summary of the method: (§2)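 Percent inhibition of radioligand binding measured on recombinant human membranes: NK1 with [125I]-Substance P, KOP with [3H]-Diprenorphine. Incubation 1 h at room temperature, then harvest onto 0.3% PEI-soaked filters, cold Tris-HCl pH 7.4 washes and scintillation counting; non-specific binding from reference ligand wells.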

[3] = biological target: T3, Human μ-opioid (MOP) (Homo sapiens, UniProt P35372); assay: Radioligand binding, human μ-opioid (MOP) membranes, FlashPlate, [3H]-Naloxone; conditions: compound at 10 μM; human μ-opioid (MOP) membranes
T3 construct: purchased Perkin Elmer Biosignal
T3 sequence (P35372 whole entry): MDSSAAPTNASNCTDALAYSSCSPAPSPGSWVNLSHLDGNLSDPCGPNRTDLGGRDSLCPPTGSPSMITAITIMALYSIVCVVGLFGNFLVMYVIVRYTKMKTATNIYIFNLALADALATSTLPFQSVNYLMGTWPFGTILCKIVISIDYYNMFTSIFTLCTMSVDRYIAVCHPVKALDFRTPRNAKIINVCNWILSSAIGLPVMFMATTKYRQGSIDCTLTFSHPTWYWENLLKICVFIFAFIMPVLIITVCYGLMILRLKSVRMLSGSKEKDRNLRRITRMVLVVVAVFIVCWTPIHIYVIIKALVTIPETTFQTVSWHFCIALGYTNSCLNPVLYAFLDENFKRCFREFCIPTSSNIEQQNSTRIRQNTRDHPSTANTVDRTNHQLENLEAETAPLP
Summary of the method: as §1

[4] = biological target: T4, Human Melanocortin (MC4) (Homo sapiens, UniProt P32245); assay: Radioligand binding, human melanocortin MC4 membranes, FlashPlate, [125I]-NDP-αMSH; conditions: compound at 10 μM; human melanocortin MC4 membranes
T4 construct: purchased Perkin Elmer Biosignal
T4 sequence (P32245 whole entry): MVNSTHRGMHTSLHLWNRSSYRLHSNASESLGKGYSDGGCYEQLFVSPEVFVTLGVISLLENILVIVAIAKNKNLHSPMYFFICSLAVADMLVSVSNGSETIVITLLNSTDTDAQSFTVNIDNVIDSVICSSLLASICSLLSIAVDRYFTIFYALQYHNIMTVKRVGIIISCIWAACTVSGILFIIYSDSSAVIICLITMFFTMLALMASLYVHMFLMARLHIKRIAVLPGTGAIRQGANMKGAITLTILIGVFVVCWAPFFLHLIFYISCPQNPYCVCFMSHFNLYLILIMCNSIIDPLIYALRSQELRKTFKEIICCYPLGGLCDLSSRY
Summary of the method: as §1

[5] = biological target: T5, Human neurokinin (NK1) (Homo sapiens, UniProt P25103); assay: Radioligand binding, human neurokinin NK1 membranes, filtration, [125I]-Substance P; conditions: compound at 10 μM; human neurokinin NK1 membranes
T5 construct: purchased Perkin Elmer Biosignal
T5 sequence (P25103 whole entry): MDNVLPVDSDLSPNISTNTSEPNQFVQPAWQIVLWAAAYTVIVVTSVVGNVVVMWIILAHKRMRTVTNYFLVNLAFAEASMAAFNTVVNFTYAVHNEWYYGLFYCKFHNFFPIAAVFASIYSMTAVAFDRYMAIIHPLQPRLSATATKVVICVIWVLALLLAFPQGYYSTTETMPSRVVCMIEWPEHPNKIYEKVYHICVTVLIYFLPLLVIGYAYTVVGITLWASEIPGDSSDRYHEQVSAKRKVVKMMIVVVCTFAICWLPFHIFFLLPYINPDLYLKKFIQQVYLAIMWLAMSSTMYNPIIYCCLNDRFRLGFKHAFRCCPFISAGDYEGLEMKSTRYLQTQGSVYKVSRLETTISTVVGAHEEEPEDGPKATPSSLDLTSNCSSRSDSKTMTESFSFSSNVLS
Summary of the method: as §2

[6] = biological target: T6, Human δ-opioid (DOP) (Homo sapiens, UniProt P41143); assay: Radioligand binding, human δ-opioid (DOP) membranes, FlashPlate, [3H]-Bremazocine; conditions: compound at 10 μM; human δ-opioid (DOP) membranes
T6 construct: purchased Perkin Elmer Biosignal
T6 sequence (P41143 whole entry): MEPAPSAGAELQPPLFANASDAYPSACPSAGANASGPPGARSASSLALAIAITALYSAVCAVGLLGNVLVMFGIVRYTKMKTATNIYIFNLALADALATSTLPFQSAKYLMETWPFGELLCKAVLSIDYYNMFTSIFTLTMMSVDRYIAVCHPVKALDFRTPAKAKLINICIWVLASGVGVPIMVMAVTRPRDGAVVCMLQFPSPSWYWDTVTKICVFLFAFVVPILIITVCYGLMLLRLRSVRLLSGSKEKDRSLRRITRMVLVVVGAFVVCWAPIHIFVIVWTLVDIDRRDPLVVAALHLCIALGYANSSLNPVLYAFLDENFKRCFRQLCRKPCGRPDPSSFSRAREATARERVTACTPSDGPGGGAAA
Summary of the method: as §1

[7] = biological target: T7, Human melanin-concentrating hormone (MCH1) (Homo sapiens, UniProt Q99705); assay: Radioligand binding, human melanin-concentrating hormone MCH1 membranes, FlashPlate, [125I]-S36057; conditions: compound at 10 μM; human MCH1 membranes
T7 construct: purchased Perkin Elmer Biosignal
T7 sequence (Q99705 whole entry): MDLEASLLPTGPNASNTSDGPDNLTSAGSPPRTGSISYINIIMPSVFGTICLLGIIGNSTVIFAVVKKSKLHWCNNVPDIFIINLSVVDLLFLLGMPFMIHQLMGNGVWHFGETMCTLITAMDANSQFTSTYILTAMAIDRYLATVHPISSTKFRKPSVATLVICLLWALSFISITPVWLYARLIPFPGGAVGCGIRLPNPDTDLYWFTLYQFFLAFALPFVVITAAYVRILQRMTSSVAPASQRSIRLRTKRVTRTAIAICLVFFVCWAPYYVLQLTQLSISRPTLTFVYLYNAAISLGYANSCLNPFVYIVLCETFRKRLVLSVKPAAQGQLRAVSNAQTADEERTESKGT
Summary of the method: as §1

[8] = biological target: T8, Human opioid (ORL1) (Homo sapiens, UniProt P41146); assay: Radioligand binding, human opioid ORL1 membranes, FlashPlate, [125I]-Nociceptin; conditions: compound at 10 μM; human ORL1 membranes
T8 construct: purchased Perkin Elmer Biosignal
T8 sequence (P41146 whole entry): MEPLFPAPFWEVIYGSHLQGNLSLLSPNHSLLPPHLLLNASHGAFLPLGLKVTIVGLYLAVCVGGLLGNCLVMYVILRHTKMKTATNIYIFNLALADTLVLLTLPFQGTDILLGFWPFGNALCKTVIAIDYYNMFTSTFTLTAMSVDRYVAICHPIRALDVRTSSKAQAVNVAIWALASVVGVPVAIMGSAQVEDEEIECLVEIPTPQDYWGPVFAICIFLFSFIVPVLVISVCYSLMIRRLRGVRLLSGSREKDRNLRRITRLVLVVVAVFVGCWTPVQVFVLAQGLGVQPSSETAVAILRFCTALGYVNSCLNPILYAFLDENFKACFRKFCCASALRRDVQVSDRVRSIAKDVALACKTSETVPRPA
Summary of the method: as §1

[9] = biological target: T9, Human melanocortin (MC5) (Homo sapiens, UniProt P33032); assay: Radioligand binding, human melanocortin MC5 membranes, FlashPlate, [125I]-NDP-αMSH; conditions: compound at 10 μM; human melanocortin MC5 membranes
T9 construct: purchased Perkin Elmer Biosignal
T9 sequence (P33032 whole entry): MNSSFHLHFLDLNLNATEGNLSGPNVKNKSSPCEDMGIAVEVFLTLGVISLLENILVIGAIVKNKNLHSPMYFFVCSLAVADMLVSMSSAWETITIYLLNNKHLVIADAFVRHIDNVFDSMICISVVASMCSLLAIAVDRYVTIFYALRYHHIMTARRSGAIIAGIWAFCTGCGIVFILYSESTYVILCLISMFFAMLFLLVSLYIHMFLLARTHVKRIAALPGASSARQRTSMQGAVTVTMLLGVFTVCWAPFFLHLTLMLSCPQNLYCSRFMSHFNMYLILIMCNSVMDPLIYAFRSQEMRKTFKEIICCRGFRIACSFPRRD
Summary of the method: as §1

[10] = biological target: T10, Mouse urotensin (mUR2) (Mus musculus, UniProt Q8VIH9); assay: Radioligand binding, mouse urotensin mUR2 membranes, FlashPlate, [125I]-Urotensin II; conditions: compound at 10 μM; mouse urotensin mUR2 membranes
T10 construct: purchased Perkin Elmer Biosignal
T10 sequence (Q8VIH9 1-385): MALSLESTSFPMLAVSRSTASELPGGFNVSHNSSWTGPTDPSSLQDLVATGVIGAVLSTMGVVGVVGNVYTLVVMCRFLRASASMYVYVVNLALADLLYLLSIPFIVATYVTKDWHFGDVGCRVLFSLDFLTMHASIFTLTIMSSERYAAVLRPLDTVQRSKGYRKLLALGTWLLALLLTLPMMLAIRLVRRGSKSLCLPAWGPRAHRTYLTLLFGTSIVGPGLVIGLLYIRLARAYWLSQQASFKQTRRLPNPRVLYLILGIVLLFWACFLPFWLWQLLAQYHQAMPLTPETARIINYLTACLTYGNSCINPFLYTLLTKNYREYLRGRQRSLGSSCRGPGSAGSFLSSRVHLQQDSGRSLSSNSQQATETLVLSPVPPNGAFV
Summary of the method: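 Cloned mouse urotensin (mUR2) receptor membranes from Perkin Elmer Biosignal were immobilized in FlashPlate microplates using a proprietary coating. Each well got 19.5 μl buffer, then 0.5 μl of DMSO, reference ligand, or compound. Adding 5 μl of [125I]-Urotensin II, diluted to 5× final concentration in binding buffer, started binding. Plates were sealed with TopSeal-A and incubated 1 hour at room temperature in the dark. Wells were counted for 30 seconds each on a TopCount after a 60-second delay, and percentage inhibition was calculated.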

[11] = biological target: T11, Human neuropeptide Y (NPY-Y1) (Homo sapiens, UniProt P25929); assay: Radioligand binding, human neuropeptide Y NPY-Y1 membranes, FlashPlate, [125I]-PYY; conditions: compound at 10 μM; human NPY-Y1 membranes
T11 construct: purchased Perkin Elmer Biosignal
T11 sequence (P25929 1-384): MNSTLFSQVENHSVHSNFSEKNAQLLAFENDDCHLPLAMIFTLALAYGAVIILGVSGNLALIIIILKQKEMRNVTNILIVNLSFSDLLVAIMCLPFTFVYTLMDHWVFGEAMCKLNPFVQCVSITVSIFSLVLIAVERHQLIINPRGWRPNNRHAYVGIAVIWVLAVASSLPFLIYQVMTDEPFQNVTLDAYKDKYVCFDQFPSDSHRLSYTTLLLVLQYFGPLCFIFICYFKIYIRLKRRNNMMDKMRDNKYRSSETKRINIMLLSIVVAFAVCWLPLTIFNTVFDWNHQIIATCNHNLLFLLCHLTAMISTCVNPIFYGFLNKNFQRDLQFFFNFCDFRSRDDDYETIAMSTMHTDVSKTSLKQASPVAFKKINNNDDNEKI
Summary of the method: as §1

T1 sequence (P41968 whole entry): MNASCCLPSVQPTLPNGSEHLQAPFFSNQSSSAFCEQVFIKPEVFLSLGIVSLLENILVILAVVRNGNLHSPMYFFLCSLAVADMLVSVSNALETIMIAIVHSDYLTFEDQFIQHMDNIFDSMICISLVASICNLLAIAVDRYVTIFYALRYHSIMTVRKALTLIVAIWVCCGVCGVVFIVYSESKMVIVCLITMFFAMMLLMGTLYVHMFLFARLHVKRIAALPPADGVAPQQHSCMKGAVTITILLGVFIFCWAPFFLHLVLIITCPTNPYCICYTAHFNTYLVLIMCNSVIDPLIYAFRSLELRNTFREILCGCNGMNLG

Row | SMILES | A3 radioligand binding inhibition [1] | A2 radioligand binding inhibition [2] | A7 radioligand binding inhibition [3] | A4 radioligand binding inhibition [4] | A8 radioligand binding inhibition [5] | A1 radioligand binding inhibition [6] | A6 radioligand binding inhibition [7] | A10 radioligand binding inhibition [8] | A5 radioligand binding inhibition [9] | A11 radioligand binding inhibition [10] | A9 radioligand binding inhibition [11]
1 | CO[C@H]1[C@H](O)[C@@H](COCc2ccc(-c3ccccc3)cc2)OC(OCc2ccc3ccccc3c2)[C@@H]1NC(=O)CCCN (stereo partly shown) [compound 68] | + (“+” indicates greater than 50% inhibition at 10 μM) | − (“−” indicates less than 50% inhibition at 10 μM) | − (“−” indicates less than 50% inhibition at 10 μM) | + (“+” indicates greater than 50% inhibition at 10 μM) | + (“+” indicates greater than 50% inhibition at 10 μM) | − (“−” indicates less than 50% inhibition at 10 μM) | + (“+” indicates greater than 50% inhibition at 10 μM) | − (“−” indicates less than 50% inhibition at 10 μM) | + (“+” indicates greater than 50% inhibition at 10 μM) | − (“−” indicates less than 50% inhibition at 10 μM) | − (“−” indicates less than 50% inhibition at 10 μM)
2 | CO[C@H]1[C@H](O)[C@@H](COCc2ccc(-c3ccccc3)cc2)OC(OCc2ccc3ccccc3c2)[C@@H]1NC(=O)CCCNC(=N)N (stereo partly shown) [compound 69] | + (“+” indicates greater than 50% inhibition at 10 μM) | − (“−” indicates less than 50% inhibition at 10 μM) | + (“+” indicates greater than 50% inhibition at 10 μM) | + (“+” indicates greater than 50% inhibition at 10 μM) | + (“+” indicates greater than 50% inhibition at 10 μM) | − (“−” indicates less than 50% inhibition at 10 μM) | + (“+” indicates greater than 50% inhibition at 10 μM) | + (“+” indicates greater than 50% inhibition at 10 μM) | + (“+” indicates greater than 50% inhibition at 10 μM) | − (“−” indicates less than 50% inhibition at 10 μM) | − (“−” indicates less than 50% inhibition at 10 μM)
3 | CO[C@H]1[C@H](O)[C@@H](COCc2ccc3ccccc3c2)OC(OCc2ccc3ccccc3c2)[C@@H]1NC(=O)CNC(=N)N (stereo partly shown) [compound 70] | + (“+” indicates greater than 50% inhibition at 10 μM) | − (“−” indicates less than 50% inhibition at 10 μM) | + (“+” indicates greater than 50% inhibition at 10 μM) | + (“+” indicates greater than 50% inhibition at 10 μM) | + (“+” indicates greater than 50% inhibition at 10 μM) | − (“−” indicates less than 50% inhibition at 10 μM) | − (“−” indicates less than 50% inhibition at 10 μM) | − (“−” indicates less than 50% inhibition at 10 μM) | + (“+” indicates greater than 50% inhibition at 10 μM) | − (“−” indicates less than 50% inhibition at 10 μM) | − (“−” indicates less than 50% inhibition at 10 μM)
4 | CO[C@H]1[C@H](O)[C@@H](COCc2ccc3ccccc3c2)OC(OCc2ccc3ccccc3c2)[C@@H]1NC(=O)CCNC(=N)N (stereo partly shown) [compound 71] | + (“+” indicates greater than 50% inhibition at 10 μM) | + (“+” indicates greater than 50% inhibition at 10 μM) | + (“+” indicates greater than 50% inhibition at 10 μM) | + (“+” indicates greater than 50% inhibition at 10 μM) | + (“+” indicates greater than 50% inhibition at 10 μM) | − (“−” indicates less than 50% inhibition at 10 μM) | + (“+” indicates greater than 50% inhibition at 10 μM) | + (“+” indicates greater than 50% inhibition at 10 μM) | + (“+” indicates greater than 50% inhibition at 10 μM) | − (“−” indicates less than 50% inhibition at 10 μM) | − (“−” indicates less than 50% inhibition at 10 μM)
5 | CO[C@H]1[C@H](O)[C@@H](COCc2ccc3ccccc3c2)OC(OCc2ccc3ccccc3c2)[C@@H]1NC(=O)CCCN (stereo partly shown) [compound 72] | − (“−” indicates less than 50% inhibition at 10 μM) | − (“−” indicates less than 50% inhibition at 10 μM) | − (“−” indicates less than 50% inhibition at 10 μM) | + (“+” indicates greater than 50% inhibition at 10 μM) | + (“+” indicates greater than 50% inhibition at 10 μM) | − (“−” indicates less than 50% inhibition at 10 μM) | − (“−” indicates less than 50% inhibition at 10 μM) | − (“−” indicates less than 50% inhibition at 10 μM) | + (“+” indicates greater than 50% inhibition at 10 μM) | − (“−” indicates less than 50% inhibition at 10 μM) | − (“−” indicates less than 50% inhibition at 10 μM)
